Test results published in US6353001B1, “2-nitromethylidene/2-cyanimino/2-nitro-imino-pyrrolidines and piperidines, intermediates, and their use as pesticides” (Syngenta Investment Corporation, priority 1993, dated 2002).

Assays:
Anthonomus grandis = test: Action against Anthonomus grandis (sprayed cotton plants); format: in vivo; details: 72 h, 400 ppm spray on young cotton plants, 10 adults, evaluation 3 days later, read-out: percentage reduction in the population and percentage reduction in feeding damage (% activity)
Procedure: Action against Anthonomus […] Young cotton plants are sprayed with an aqueous emulsion comprising 400 ppm of test compound. After the spray coating has dried, the plants are populated with 10 Anthonomus grandis adults and placed in a plastics container. Evaluation is made 3 days later. The percentage reduction in the population and the percentage reduction in feeding damage (% activity) are determined by comparing the number of dead beetles and the feeding damage on the treated plants with that on untreated plants.

Aphis craccivora = test: Action against Aphis craccivora (sprayed pea seedlings); format: in vivo; details: 400 ppm spray on infested pea seedlings, 20° C., evaluation 3 to 7 days later, read-out: percentage reduction in the population (% activity)
Procedure: (§1) Action against Aphis craccivora Pea seedlings are infested with Aphis craccivora, then sprayed with a spray mixture comprising 400 ppm of test compound and then incubated at 20° C. Evaluation is made 3 to 7 days later. The percentage reduction in the population (% activity) is determined by comparing the number of dead Aphis craccivora individuals on the treated plants with that on untreated plants.

Ctenocephalides felis = test: Systemic action against Ctenocephalides felis (membrane blood feeding); format: in vivo; details: 50 ppm in blood, 37°, 20 adult fleas, evaluation 24 and 48 hours, read-out: percentage reduction in the population (% activity)
Procedure: Systemic action against Ctenocephalides felis 20 adult fleas of the Ctenocephalides felis species are placed in a flat round cage closed on both sides with gauze. A vessel sealed on the underside with a parafilm membrane is placed on the cage. The vessel contains blood comprising 50 ppm of test compound and maintained at a constant 37°. The fleas ingest the blood through the membrane. Evaluation is made 24 and 48 hours after the start of the test. The percentage reduction in the population (% activity) is determined by comparing the number of dead Ctenocephalides felis fleas when treated blood is used with that when untreated blood is used. The blood is replaced by fresh treated blood 24 hours after treatment.

Heliothis virescens = test: Action against Heliothis virescens (sprayed soybean plants); format: in vivo; details: 144 h, 400 ppm spray on young soybean plants, 10 caterpillars in the first stage, evaluation 6 days later, read-out: percentage reduction in the population and percentage reduction in feeding damage (% activity)
Procedure: Action against Heliothis virescens Young soybean plants are sprayed with an aqueous emulsion comprising 400 ppm of test compound. After the spray coating has dried, the plants are populated with 10 Heliothis virescens caterpillars in the first stage and placed in a plastics container. Evaluation is made 6 days later. The percentage reduction in the population and the percentage reduction in feeding damage (% activity) are determined by comparing the number of dead caterpillars and the feeding damage on the treated plants with that on untreated plants.

Myzus persicae [1] = test: Action against Myzus persicae (sprayed pea seedlings); format: in vivo; details: 400 ppm spray on infested pea seedlings, 20°, evaluation 3 to 7 days later, read-out: percentage reduction in the population (% activity)
Procedure: as §1, with “Myzus persicae” for “Aphis craccivora”, “Myzus persicae,” for “Aphis craccivora,”, “20°.” for “20° C.”, “aphids” for “Aphis craccivora individuals”

Myzus persicae [2] = test: Systemic action against Myzus persicae (roots in spray mixture); format: in vivo; details: systemic: pea seedling roots in 400 ppm spray mixture, 20° C., evaluation 3 to 7 days later, read-out: percentage reduction in the population (% activity)
Procedure: Systemic action against Myzus persicae Pea seedlings are infested with Myzus persicae, then placed with their roots in a spray mixture comprising 400 ppm of test compound and then incubated at 20° C. Evaluation is made 3 to 7 days later. The percentage reduction in the population (% activity) is determined by comparing the number of dead aphids on the treated plants with that on untreated plants.

Nephotettix cincticeps = test: Action against Nephotettix cincticeps (sprayed rice plants); format: in vivo; details: 504 h, 400 ppm spray on rice plants, larvae in the 2nd and 3rd stages, evaluation 21 days later, read-out: percentage reduction in the population (% activity)
Procedure: Action against Nephotettix cincticeps Rice plants are sprayed with an aqueous emulsion comprising 400 ppm of test compound. After the spray coating has dried, the plants are populated with Nephotettix cincticeps larvae in the 2nd and 3rd stages. Evaluation is made 21 days later. The percentage reduction in the population (% activity) is determined by comparing the number of surviving leaf hoppers on the treated plants with that on untreated plants.

Nilaparvata lugens = test: Action against Nilaparvata lugens (sprayed rice plants); format: in vivo; details: 504 h, 400 ppm spray on rice plants, larvae in the 2nd and 3rd stages, evaluation 21 days later, read-out: percentage reduction in the population (% activity)
Procedure: Action against Nilaparvata lugens Rice plants are sprayed with an aqueous emulsion comprising 400 ppm of test compound. After the spray coating has dried, the rice plants are populated with Nilaparvata lugens larvae in the 2nd and 3rd stages. Evaluation is made 21 days later. The percentage reduction in the population (% activity) is determined by comparing the number of surviving plant hoppers on the treated plants with that on untreated plants.

Plutella xylostella = test: Action against Plutella xylostella caterpillars; format: in vivo; details: 72 h, 400 ppm spray on young cabbage plants, 10 caterpillars in the third stage, evaluation 3 days later, read-out: percentage reduction in the population and percentage reduction in feeding damage (% activity)
Procedure: Action against Plutella xylostella caterpillars Young cabbage plants are sprayed with an aqueous emulsion comprising 400 ppm of test compound. After the spray coating has dried, the cabbage plants are populated with 10 Plutella xylostella caterpillars in the third stage and placed in a plastics container. Evaluation is made 3 days later. The percentage reduction in the population and the percentage reduction in feeding damage (% activity) are determined by comparing the number of dead caterpillars and the feeding damage on the treated plants with that on untreated plants.

Diabrotica balteata = test: Action against Diabrotica balteata (sprayed maize seedlings); format: in vivo; details: 144 h, 400 ppm spray on maize seedlings, 10 larvae in the second stage, evaluation 6 days later, read-out: percentage reduction in the population (% activity)
Procedure: Action against Diabrotica balteata Maize seedlings are sprayed with an aqueous emulsion comprising 400 ppm of test compound. After the spray coating has dried, the seedlings are populated with 10 Diabrotica balteata larvae in the second stage and placed in a plastics container. Evaluation is made 6 days later. The percentage reduction in the population (% activity) is determined by comparing the number of dead larvae on the treated plants with that on untreated plants.

| Compound | inhibition at 400 ppm (Anthonomus grandis) [%] | inhibition at 400 ppm (Aphis craccivora) [%] | inhibition at 50 ppm (Ctenocephalides felis) [%] | inhibition at 400 ppm (Heliothis virescens) [%] | inhibition at 400 ppm (Myzus persicae [1]) [%] | inhibition at 400 ppm (Myzus persicae [2]) [%] | inhibition at 400 ppm (Nephotettix cincticeps) [%] | inhibition at 400 ppm (Nilaparvata lugens) [%] | inhibition at 400 ppm (Plutella xylostella) [%] | melting point [°C] | inhibition at 400 ppm (Diabrotica balteata) [%] |
| --- | --- | --- | --- | --- | --- | --- | --- | --- | --- | --- | --- |
| O=[N+]([O-])/C=C1\NCCC1Cc1ccc(Cl)nc1 (stereo not shown) [Compound 5.3, 3-(2-Chloropyrid-5-yl-methyl)2-nitromethylidene-pyrrolidine] | > 80 | > 80 | > 80 | > 80 | > 80 | > 80 | > 80 | > 80 | > 80 | 159 to 161 | – |
| CN1CCC(Cc2ccc(Cl)nc2)/C1=C/[N+](=O)[O-] (stereo not shown) [Compound 5.4, 3-(2-Chloropyrid-5-yl-methyl)-1methyl-2-nitromethylidene-pyrrolidine] | > 80 | – | – | – | > 80 | > 80 | > 80 | > 80 | – | – | – |
| CCN1CCC(Cc2ccc(Cl)nc2)/C1=C/[N+](=O)[O-] (stereo not shown) [Compound 5.5, 3-(2-Chloropyrid-5-yl-methyl)-1-ethyl-2-nitromethylidene-pyrrolidine] | – | – | – | – | – | – | > 80 | – | – | – | – |
| O=[N+]([O-])C=C1NCCCC1Cc1ccc(Cl)nc1 (stereo not shown) [Compound 5.16, 3-(2-chloropyrid-5-yl-methyl)-2-nitromethylidene-piperidine] | – | – | – | – | > 80 | – | – | – | – | 179 to 181 | > 80 |
